Like-named read-outs stand apart in the source and are kept apart here. A value given as a limit tells only on which side of the number the result lay.

In test [1] the target is T1, human 5-HT1A receptor (Homo sapiens, UniProt P08908).
T1 construct: expressed in transfected cells; host or cells: COS-7 (transient, pCEXV-3 vector)
T1 sequence (P08908 1-422): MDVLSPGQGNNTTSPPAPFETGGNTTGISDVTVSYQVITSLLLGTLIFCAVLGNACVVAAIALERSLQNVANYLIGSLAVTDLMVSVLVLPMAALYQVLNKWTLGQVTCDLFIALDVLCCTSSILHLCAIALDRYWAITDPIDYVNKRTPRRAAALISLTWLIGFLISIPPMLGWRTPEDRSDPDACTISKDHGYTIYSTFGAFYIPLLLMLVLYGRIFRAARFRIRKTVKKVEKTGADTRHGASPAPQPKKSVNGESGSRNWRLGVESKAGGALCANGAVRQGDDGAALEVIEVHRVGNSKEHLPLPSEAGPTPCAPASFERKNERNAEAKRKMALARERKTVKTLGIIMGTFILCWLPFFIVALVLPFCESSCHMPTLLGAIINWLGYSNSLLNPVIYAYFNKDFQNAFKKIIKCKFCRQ
Description: Radioligand competition binding, human 5-HT1A receptor (3H-8-OH-DPAT). As to conditions: read-out: Affinity at 5-HT1A (Ki ± SEM). The protocol: (§1) The binding of a test compound to a receptor of interest was generally evaluated by competitive binding assays using membrane preparations derived from cells which expressed the receptor. First, conditions were determined which allowed measurement of the specific binding of a compound known to bind to the receptor. Then, the binding of the known compound to the receptor in membrane preparations was evaluated in the presence of several different concentrations of the test compound.
The binding properties of compounds at different human receptors were determined in vitro using cultured cell lines that selectively express the receptor of interest. […]
Human 5HT2A Receptor: The coding sequence of the human 5HT2A receptor was obtained from a human brain cortex cDNA library, and cloned into the cloning site of pCEXV-3 eukaryotic expression vector. […] The affinity of compounds at 5-HT2A receptors were determined in equilibrium competition binding assays using [^3H] ketanserin (1 nM). […]
5-HT1A Receptor: The cDNA corresponding to the 5-HT1A receptor open reading frames and variable non-coding 5′- and 3′-regions, was cloned into the eukaryotic expression vector pCEXV-3. […] Radioligand binding assays were performed as described above for the 5-HT2A receptor, except that ^3H-8-OH-DPAT was used as the radioligand and nonspecific binding was determined by the addition of 10 μM mianserin.

Test [2] addresses T2, human 5-HT1B receptor (Homo sapiens, UniProt P28222).
T2 construct: expressed in transfected cells
The test is described as follows: Radioligand competition binding, human 5-HT1B receptor ([3H]-serotonin). As to conditions: read-out: Affinity at 5-HT1B (Ki ± SEM). The protocol:
as §1
(§2) The binding properties of compounds at different human receptors were determined in vitro using cultured cell lines that selectively express the receptor of interest. These cell lines were prepared by transfecting the cloned cDNA or cloned genomic DNA or constructs containing both genomic DNA and cDNA encoding the human receptors as follows:
(§3) Human 5HT1B, 5HT1D, 5HT1E, 5HT1F, and 5HT7 Receptors:
(§4) The cell lysates of LM(tk-) clonal cell line stably transfected with the genes encoding each of these 5-HT receptor-subtypes were prepared as described above. Cell membranes were suspended in 50 mM Tris-HCl buffer (pH 7.4 at 37° C.) containing 10 mM MgCl2, 0.2 mM EDTA, 10 μM pargyline, and 0.1% ascorbate. […] Nonspecific binding was determined in the presence of 10 μM serotonin. […]

The target in test [3] is T3, human 5-HT1D receptor (Homo sapiens, UniProt P28221).
T3 construct: expressed in transfected cells
T3 sequence (P28221 whole entry): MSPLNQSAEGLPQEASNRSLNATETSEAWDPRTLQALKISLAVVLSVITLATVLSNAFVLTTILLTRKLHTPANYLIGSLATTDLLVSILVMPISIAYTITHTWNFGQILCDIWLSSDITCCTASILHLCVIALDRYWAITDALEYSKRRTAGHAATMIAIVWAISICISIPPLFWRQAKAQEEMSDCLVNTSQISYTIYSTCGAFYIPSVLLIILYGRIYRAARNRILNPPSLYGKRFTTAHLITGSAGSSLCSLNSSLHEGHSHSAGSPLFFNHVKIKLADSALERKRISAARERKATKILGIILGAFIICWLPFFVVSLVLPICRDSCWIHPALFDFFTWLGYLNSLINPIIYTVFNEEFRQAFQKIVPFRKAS
Description: Radioligand competition binding, human 5-HT1D receptor ([3H]-serotonin). The note with it: read-out: Affinity at 5-HT1D (Ki ± SEM). The protocol: as §1, §2, §3, §4

In test [4] the target is T4, human 5-HT1E receptor (Homo sapiens, UniProt P28566).
T4 construct: expressed in transfected cells
T4 sequence (P28566 whole entry): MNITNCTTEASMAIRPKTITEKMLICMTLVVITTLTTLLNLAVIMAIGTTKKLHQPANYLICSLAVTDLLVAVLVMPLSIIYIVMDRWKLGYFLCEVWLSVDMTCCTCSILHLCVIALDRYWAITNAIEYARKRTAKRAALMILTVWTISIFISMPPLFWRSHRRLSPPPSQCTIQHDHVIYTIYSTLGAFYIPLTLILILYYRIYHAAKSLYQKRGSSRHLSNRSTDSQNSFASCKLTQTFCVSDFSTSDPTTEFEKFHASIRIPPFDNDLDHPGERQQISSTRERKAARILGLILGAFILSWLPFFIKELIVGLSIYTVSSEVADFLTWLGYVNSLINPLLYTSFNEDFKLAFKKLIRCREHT
Description: Radioligand competition binding, human 5-HT1E receptor ([3H]-serotonin). As to conditions: read-out: Affinity at 5-HT1E (Ki ± SEM). The protocol: as §1, §2, §3
(§5) The cell lysates of LM(tk-) clonal cell line stably transfected with the genes encoding each of these 5-HT receptor-subtypes were prepared as described above. Cell membranes were suspended in 50 mM Tris-HCl buffer (pH 7.4 at 37° C.) containing 10 mM MgCl2, 0.2 mM EDTA, 10 μM pargyline, and 0.1% ascorbate. The affinities of compounds were determined in equilibrium competition binding assays by incubation for 30 minutes at 37° C. in the presence of 5 nM [^3H]-serotonin. Nonspecific binding was determined in the presence of 10 μM serotonin. The bound radioligand was separated by filtration through GF/B filters using a cell harvester.

The target in test [5] is T5, human 5-HT1F receptor (Homo sapiens, UniProt P30939).
T5 construct: expressed in transfected cells
T5 sequence (P30939 1-366): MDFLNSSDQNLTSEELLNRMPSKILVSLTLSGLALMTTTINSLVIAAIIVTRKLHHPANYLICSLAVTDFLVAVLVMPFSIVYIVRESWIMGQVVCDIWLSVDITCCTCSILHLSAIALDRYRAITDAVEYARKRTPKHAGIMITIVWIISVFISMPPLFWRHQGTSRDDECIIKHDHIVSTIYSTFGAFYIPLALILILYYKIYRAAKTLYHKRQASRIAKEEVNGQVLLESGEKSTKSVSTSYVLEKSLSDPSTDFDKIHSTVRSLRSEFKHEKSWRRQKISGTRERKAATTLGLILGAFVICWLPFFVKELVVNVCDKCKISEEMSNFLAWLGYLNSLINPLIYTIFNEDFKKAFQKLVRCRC
Description: Radioligand competition binding, human 5-HT1F receptor ([3H]-serotonin). As to conditions: read-out: Affinity at 5-HT1F (Ki ± SEM). As for the experimental part: as §1, §2, §3, §5

For test [6], the target named is T6, human 5-HT2A receptor (Homo sapiens, UniProt P28223).
T6 construct: expressed in transfected cells; host or cells: COS-7 (transient, pCEXV-3 vector)
T6 sequence (P28223 whole entry): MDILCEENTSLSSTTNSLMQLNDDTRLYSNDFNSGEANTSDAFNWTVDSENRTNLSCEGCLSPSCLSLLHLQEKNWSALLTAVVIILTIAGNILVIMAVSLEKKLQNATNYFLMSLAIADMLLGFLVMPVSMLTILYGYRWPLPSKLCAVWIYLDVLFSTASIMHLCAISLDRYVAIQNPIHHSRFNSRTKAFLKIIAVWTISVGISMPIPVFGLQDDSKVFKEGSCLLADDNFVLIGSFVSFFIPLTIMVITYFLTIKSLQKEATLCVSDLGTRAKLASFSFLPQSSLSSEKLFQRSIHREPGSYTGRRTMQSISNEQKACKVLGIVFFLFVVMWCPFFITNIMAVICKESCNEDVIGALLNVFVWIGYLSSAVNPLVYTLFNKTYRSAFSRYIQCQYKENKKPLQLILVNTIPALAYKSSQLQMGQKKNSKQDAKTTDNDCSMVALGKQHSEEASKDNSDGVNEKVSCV
Description: Radioligand competition binding, human 5-HT2A receptor ([3H] ketanserin). As for the experimental part: as §1, §2
Human 5HT2A Receptor: The coding sequence of the human 5HT2A receptor was obtained from a human brain cortex cDNA library, and cloned into the cloning site of pCEXV-3 eukaryotic expression vector. This construct was transfected into COS-7 cells by the DEAE-dextran method. Cells were harvested after 72 hours and lysed by sonication in 5 mM Tris-HCl, 5 mM EDTA, pH 7.5. […] The affinity of compounds at 5-HT2A receptors were determined in equilibrium competition binding assays using [^3H] ketanserin (1 nM). […]

The target of test [7] is T7, human 5-HT2B receptor (Homo sapiens, UniProt P41595).
T7 construct: expressed in transfected cells
T7 sequence (P41595 whole entry): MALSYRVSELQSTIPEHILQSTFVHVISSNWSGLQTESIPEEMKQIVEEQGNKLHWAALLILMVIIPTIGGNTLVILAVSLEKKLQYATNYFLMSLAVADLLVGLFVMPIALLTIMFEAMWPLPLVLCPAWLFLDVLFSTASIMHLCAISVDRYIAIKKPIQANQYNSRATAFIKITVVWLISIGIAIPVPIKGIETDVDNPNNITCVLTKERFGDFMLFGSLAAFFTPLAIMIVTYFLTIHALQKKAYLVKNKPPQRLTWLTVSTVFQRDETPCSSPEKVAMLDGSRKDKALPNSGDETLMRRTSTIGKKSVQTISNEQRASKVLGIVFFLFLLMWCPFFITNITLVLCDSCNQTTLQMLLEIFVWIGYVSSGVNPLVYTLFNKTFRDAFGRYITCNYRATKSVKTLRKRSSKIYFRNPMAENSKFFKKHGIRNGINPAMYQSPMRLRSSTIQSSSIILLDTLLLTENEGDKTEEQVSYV
The test is described as follows: Radioligand binding, human 5-HT2B receptor. The protocol:
as §1
(§6) Other 5-HT Receptors: The binding assays using 5-HT4 were preformed according to the procedures described in U.S. Pat. No. 5,766,879, the disclosure of which is hereby incorporated by reference in its entirety into this application. Other serotonin receptor binding assays were preformed according to published methods: 5-HT2B: Kursar et al., 1992; 5-HT2C: Saltzman et al., 1991; 5-HT3: Hoyer and Neijt, 1987; 5-HT5A: Plassat et al., 1992; 5-HT5B: Matthes et al., 1993; 5-HT6: Kohen et al., 1996.

The target in test [8] is T8, human 5-HT2C receptor (Homo sapiens, UniProt P28335).
T8 construct: expressed in transfected cells
T8 sequence (P28335 33-458): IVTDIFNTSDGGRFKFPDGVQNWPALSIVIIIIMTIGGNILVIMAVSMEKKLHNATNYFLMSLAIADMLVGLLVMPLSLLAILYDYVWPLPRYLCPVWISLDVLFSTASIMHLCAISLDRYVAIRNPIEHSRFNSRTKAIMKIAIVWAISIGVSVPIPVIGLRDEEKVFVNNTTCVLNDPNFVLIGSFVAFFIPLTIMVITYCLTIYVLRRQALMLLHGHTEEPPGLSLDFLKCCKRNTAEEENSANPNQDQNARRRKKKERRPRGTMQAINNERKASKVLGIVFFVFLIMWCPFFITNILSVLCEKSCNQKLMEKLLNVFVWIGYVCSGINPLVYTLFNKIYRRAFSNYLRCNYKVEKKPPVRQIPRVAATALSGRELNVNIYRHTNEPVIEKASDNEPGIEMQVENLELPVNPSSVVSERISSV
Description: Radioligand binding, human 5-HT2C receptor. The protocol: as §1, §6

The target of test [9] is T9, human 5-HT4 receptor (Homo sapiens, UniProt Q13639).
T9 construct: expressed in transfected cells
T9 sequence (Q13639 whole entry): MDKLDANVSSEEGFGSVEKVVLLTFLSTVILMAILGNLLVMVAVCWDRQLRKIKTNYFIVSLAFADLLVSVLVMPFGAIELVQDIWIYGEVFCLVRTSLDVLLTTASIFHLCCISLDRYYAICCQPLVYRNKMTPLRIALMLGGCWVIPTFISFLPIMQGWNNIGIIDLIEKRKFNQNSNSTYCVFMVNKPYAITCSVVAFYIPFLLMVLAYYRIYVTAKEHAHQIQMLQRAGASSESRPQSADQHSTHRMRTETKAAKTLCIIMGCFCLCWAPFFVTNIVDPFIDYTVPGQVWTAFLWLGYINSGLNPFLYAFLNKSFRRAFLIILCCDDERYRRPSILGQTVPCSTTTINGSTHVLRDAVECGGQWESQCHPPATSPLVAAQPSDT
The test is described as follows: Radioligand binding, human 5-HT4 receptor. The note with it: read-out: Affinity at 5-HT4 (Ki ± SEM). As for the experimental part: as §1, §6

Test [10] concerns the target T10, human 5-HT6 receptor (Homo sapiens, UniProt P50406).
T10 construct: expressed in transfected cells
The test is described as follows: Radioligand binding, human 5-HT6 receptor. As to conditions: read-out: Affinity at 5-HT6 (Ki ± SEM). As for the experimental part:
as §1, §6

The target of test [11] is T11, human 5-HT7 receptor (Homo sapiens, UniProt P34969).
T11 construct: expressed in transfected cells
T11 sequence (P34969 whole entry): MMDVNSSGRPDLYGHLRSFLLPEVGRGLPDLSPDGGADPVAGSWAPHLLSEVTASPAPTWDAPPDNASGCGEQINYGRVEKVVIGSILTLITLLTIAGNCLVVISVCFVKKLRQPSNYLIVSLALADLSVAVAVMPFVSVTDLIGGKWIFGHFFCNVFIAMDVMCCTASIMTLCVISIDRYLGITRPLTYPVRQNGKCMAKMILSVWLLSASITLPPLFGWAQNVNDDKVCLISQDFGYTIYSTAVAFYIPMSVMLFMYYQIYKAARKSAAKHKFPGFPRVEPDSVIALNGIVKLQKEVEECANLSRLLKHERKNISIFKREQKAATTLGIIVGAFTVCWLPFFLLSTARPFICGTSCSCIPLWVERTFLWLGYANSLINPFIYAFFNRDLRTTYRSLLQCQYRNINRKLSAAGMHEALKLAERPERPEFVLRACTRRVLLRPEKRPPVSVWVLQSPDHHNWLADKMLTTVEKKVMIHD
The test is described as follows: Radioligand competition binding, human 5-HT7 receptor ([3H]-serotonin). As to conditions: read-out: Affinity at 5-HT7 (Ki ± SEM). The protocol: as §1, §2, §3, §4

Test [12] relates to distension-induced rhythmic contractions of the rat bladder. The test is described as follows: Distension-induced rhythmic contraction (DIRC) model of the micturition reflex. The test is classed as in vivo. As to conditions: for Effect on distension-induced rhythmic contractions of the rat bladder: urethane-anesthetized female rat, 0.1 mg/kg. The protocol: The effects of compounds on the micturition reflex were assessed in the “distension-induced rhythmic contraction” (DIRC) model in rats, as described in previous publications (e.g. Maggi et al., 1987; Morikawa et al., 1992).
Female Sprague Dawley rats weighing approximately 300 g were anesthetized with subcutaneous urethane (1.2 g/kg). The trachea was cannulated with PE240 tubing to provide a clear airway throughout the experiment. A midline abdominal incision was made and the left and right ureters were isolated. The ureters were ligated distally (to prevent escape of fluids from the bladder) and cannulated proximally with PE10 tubing. The incision was closed using 4-0 silk sutures, leaving the PE10 lines routed to the exterior for the elimination of urine. The bladder was cannulated via the transurethral route using PE50 tubing inserted 2.5 cm beyond the urethral opening. This cannula was secured to the tail using tape and connected to a pressure transducer. To prevent leakage from the bladder, the cannula was tied tightly to the exterior urethral opening using 4-0 silk.
To initiate the micturition reflex, the bladder was first emptied by applying pressure to the lower abdomen, and then filled with normal saline in 100 μl increments (maximum=2 ml) until spontaneous bladder contractions occurred (typically 20-40 mmHg at a rate of one contraction every 1 to 2 minutes. Once a regular rhythm was established, vehicle (saline) or 5-HT1F-selective compounds were administered i.p. to explore their effects on bladder activity. In some instances, a compound known to affect the micturition reflex (e.g. the GABAB receptor agonist APMPA [3-aminopropyl-2-methyl-phosphinic acid]) was given as a “positive control”.

[13] abbreviates: rat, prior administration of antagonist 1.0 mg/kg, i.p.

T10 sequence (P50406 whole entry): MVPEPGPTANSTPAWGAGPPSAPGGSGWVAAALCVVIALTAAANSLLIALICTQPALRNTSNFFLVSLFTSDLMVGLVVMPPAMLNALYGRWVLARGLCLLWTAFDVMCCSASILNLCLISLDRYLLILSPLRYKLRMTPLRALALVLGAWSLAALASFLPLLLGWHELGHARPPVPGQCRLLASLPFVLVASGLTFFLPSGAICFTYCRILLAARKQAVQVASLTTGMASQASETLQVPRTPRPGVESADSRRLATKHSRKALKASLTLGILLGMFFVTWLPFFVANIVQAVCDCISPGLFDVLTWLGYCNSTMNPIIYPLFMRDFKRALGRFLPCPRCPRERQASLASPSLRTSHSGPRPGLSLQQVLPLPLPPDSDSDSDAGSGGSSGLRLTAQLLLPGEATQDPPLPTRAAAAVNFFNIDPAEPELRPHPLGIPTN
T2 sequence (P28222 whole entry): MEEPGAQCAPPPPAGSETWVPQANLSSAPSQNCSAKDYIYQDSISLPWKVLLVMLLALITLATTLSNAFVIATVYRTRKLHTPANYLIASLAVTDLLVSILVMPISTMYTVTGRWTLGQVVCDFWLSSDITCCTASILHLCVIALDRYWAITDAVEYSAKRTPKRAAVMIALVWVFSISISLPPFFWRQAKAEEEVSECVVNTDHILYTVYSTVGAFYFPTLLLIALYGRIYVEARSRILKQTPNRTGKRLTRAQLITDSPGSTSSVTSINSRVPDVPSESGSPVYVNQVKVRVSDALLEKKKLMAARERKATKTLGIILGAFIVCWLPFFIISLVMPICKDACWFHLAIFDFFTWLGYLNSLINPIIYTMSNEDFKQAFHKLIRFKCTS

As to `CN(C)C1CCc2oc3ccc(NC(=O)c4ccncc4)cc3c2C1` (centres unmarked) [Compound 1, N-(N,N-Dimethyl-1,2,3,4-tetrahydro-2-aminodibenzofur-8-yl)-pyridine-4-carboxamide], the Ki was 367 ± 42 nM in [1]; 751 ± 68 nM in [2]; 1780 ± 87 nM in test [3]; 2900 ± 288 nM in test [4]; 7.11 ± 0.76 nM in [5]; greater than 5000 nM in test [6] (human 5-HT2A, read-out: Affinity at 5-HT2A (Ki ± SEM)). Moreover, the Ki was 4200 ± 219 nM in test [7] (human 5-HT2B, read-out: Affinity at 5-HT2B (Ki ± SEM)); 4760 ± 169 nM in test [8] (human 5-HT2C, read-out: Affinity at 5-HT2C (Ki ± SEM)); 1870 ± 57 nM in test [9]; greater than 5000 nM in test [10]; greater than 5000 nM in [11]. In addition, the “Effect on distension-induced rhythmic contractions of the rat bladder” value in [12] (i.p.) was “inhibited”.
`CN(C)[C@@H]1CCc2c([nH]c3ccc(NC(=O)c4ccc(F)cc4)cc23)C1` [Compound 2, (R)-(+)-6-(4-fluorobenzoyl)amino-2-(dimethyl)amino-1,2,3,4-tetrahydro-9H-carbazole]: the Ki turned out to be 461 ± 102 nM in test [4] and 3.47 ± 0.08 nM in [5]. The “Effect on distension-induced rhythmic contractions of the rat bladder” value in [12] (i.p.) was “inhibited”.
For the compound `O[C@H](COc1ccc2ccccc2c1)CN1CCC(O)(c2cnc3ccccc3c2)CC1` [Compound 3, 1-((2S)-hydroxy-3-(naphth-2-yloxy)prop-1-yl)-4-hydroxy-4-(quinolin-3-yl)piperidine], the Ki is 591 ± 143 nM in test [1]; 1280 ± 144 nM in [2]; 1530 ± 400 nM in test [3]; 3670 ± 505 nM in [4]; 4.31 ± 0.53 nM in test [5]; 377 ± 94 nM in test [6]. Moreover, the Ki in test [7] was found to be 496 ± 36 nM; in [8], 1370 ± 341 nM; in [9] it was 405 ± 122 nM; in test [10] it was 4220 ± 399 nM; in test [11], 4410 ± 514 nM. Besides, the “Blockade of the inhibitory effect of Compound 2 on bladder contractions” value in [12] (setting [13]) is recorded as “complete blockade”. In addition, the “Blockade of the inhibitory effect of the GABAB agonist 3-APMPA on bladder contractions” value in test [12] (setting [13]) is on record as “failed to block”.
Regarding `CP(=O)(O)CCCN` [Compound 3-APMPA, 3-aminopropyl-methyl-phosphinic acid, reference compound], the “Effect on bladder contractions (positive control)” value in test [12] (rat, after Compound 3, dose not given) is on record as “inhibitory effect”.

(Values after patent publication US20030004207A1, “USE OF COMPOUNDS WHICH ACTIVATE A 5-HT RECEPTOR TO TREAT URINARY INCONTINENCE” (priority 1999, published 2003).)
